Measurements from US20130281467A1, “NOVEL MICROBICIDES” (SYNGENTA PARTICIPATIONS AG, priority 2010, published 2013).

Key:
[1] = system: Botryotinia fuckeliana (Botrytis cinerea); test: Fungicidal activity against Botryotinia fuckeliana (Botrytis cinerea) / liquid culture (gray mould); assay type: cell-based; conditions: 3-4 days after application, read-out: disease control (inhibition of growth, photometrically)
Description: Fungicidal Activity Against Botryotinia fuckeliana (Botrytis cinerea)/Liquid Culture (Gray Mould) Conidia of the fungus from cryogenic storage were directly mixed into nutrient broth (Vogels broth). After placing a (DMSO) solution of test compound into a microtiter plate (96-well format), the nutrient broth containing the fungal spores was added. The test plates were incubated at 24° C. and the inhibition of growth was determined photometrically 3-4 days after application.

Gaeumannomyces graminis = test: Fungicidal activity against Gaeumannomyces graminis / liquid culture (take-all of cereals); assay type: cell-based; conditions: 4-5 days after application, read-out: disease control (inhibition of growth, photometrically)
Description: (§1) Fungicidal Activity Against Gaeumannomyces graminis/Liquid Culture (Take-all of Cereals) Mycelial fragments of the fungus from cryogenic storage were directly mixed into nutrient broth (PDB potato dextrose broth). After placing a (DMSO) solution of test compound into a microtiter plate (96-well format), the nutrient broth containing the fungal spores iss added. The test plates were incubated at 24° C. and the inhibition of growth was determined photometrically 4-5 days after application.

[2] = system: Glomerella lagenarium (Colletotrichum lagenarium); test: Fungicidal activity against Glomerella lagenarium (Colletotrichum lagenarium) / liquid culture (anthracnose); assay type: cell-based; conditions: Colletotrichum orbiculare, 3-4 days after application, read-out: disease control (inhibition of growth, photometrically)
Description: as §1, with “Glomerella lagenarium (Colletotrichum lagenarium)/Liquid” for “Gaeumannomyces graminis/Liquid”, “(Anthracnose) Conidia” for “(Take-all of Cereals) Mycelial fragments”, “was” for “iss”, “measured” for “determined”, “3-4” for “4-5”

[3] = system: Monographella nivalis (Microdochium nivale); test: Fungicidal activity against Monographella nivalis (Microdochium nivale) / liquid culture (foot rot cereals); assay type: cell-based; conditions: 4-5 days after application, read-out: disease control (inhibition of growth, photometrically)
Description: as §1, with “Monographella nivalis (Microdochium nivale)/Liquid” for “Gaeumannomyces graminis/Liquid”, “(Foot Rot” for “(Take-all of”, “Conidia” for “Mycelial fragments”, “was” for “iss”

[4] = system: Mycosphaerella arachidis (Cercospora arachidicola); test: Fungicidal activity against Mycosphaerella arachidis (Cercospora arachidicola) / liquid culture (early leaf spot); assay type: cell-based; conditions: 4-5 days after application, read-out: disease control (inhibition of growth, photometrically)
Description: as §1, with “Mycosphaerella arachidis (Cercospora arachidicola)/Liquid” for “Gaeumannomyces graminis/Liquid”, “(Early Leaf Spot) Conidia” for “(Take-all of Cereals) Mycelial fragments”, “was” for “iss”

[5] = system: Mycosphaerella graminicola (Septoria tritici); test: Fungicidal activity against Mycosphaerella graminicola (Septoria tritici) / liquid culture (Septoria blotch); assay type: cell-based; conditions: Zymoseptoria tritici, 4-5 days after application, read-out: disease control (inhibition of growth, photometrically)
Description: as §1, with “Mycosphaerella graminicola (Septoria tritici)/Liquid” for “Gaeumannomyces graminis/Liquid”, “(Septoria Blotch) Conidia” for “(Take-all of Cereals) Mycelial fragments”, “was” for “iss”

[6] = system: Phaeosphaeria nodorum (Septoria nodorum); test: Fungicidal activity against Phaeosphaeria nodorum (Septoria nodorum) / wheat / leaf disc preventative (glume blotch); assay type: in vivo; conditions: Parastagonospora nodorum, foliar, wheat leaf segments, inoculated 2 days after application, compared to untreated, read-out: disease control
Description: Fungicidal Activity Against Phaeosphaeria nodorum (Septoria nodorum)/Wheat/Leaf Disc Preventative (Glume Blotch) Wheat leaf segments cv. Kanzler were placed on agar in a multiwell plate (24-well format) and sprayed with the formulated test compound diluted in water. The leaf disks were inoculated with a spore suspension of the fungus 2 days after application. The inoculated test leaf disks were incubated at 20° C. and 75% rh under a light regime of 12 h light/12 h darkness in a climate cabinet and the activity of a compound was assessed as percent disease control compared to untreated when an appropriate level of disease damage appears in untreated check leaf disks (5-7 days after application).

[7] = system: Puccinia recondita f. sp. tritici; test: Fungicidal activity against Puccinia recondita f. sp. tritici / wheat / leaf disc preventative (brown rust); assay type: in vivo; conditions: foliar, wheat leaf segments, inoculated 1 day after application, compared to untreated, read-out: disease control
Description: Fungicidal Activity Against Puccinia recondita f. sp. tritici/Wheat/Leaf Disc Preventative (Brown Rust) Wheat leaf segments cv. Kanzler were placed on agar in multiwell plates (24-well format) and sprayed with the formulated test compound diluted in water. The leaf disks were inoculated with a spore suspension of the fungus 1 day after application. The inoculated leaf segments were incubated at 19° C. and 75% rh under a light regime of 12 h light/12 h darkness in a climate cabinet and the activity of a compound was assessed as percent disease control compared to untreated when an appropriate level of disease damage appears in untreated check leaf segments (7-9 days after application).

[8] = system: Thanatephorus cucumeris (Rhizoctonia solani); test: Fungicidal activity against Thanatephorus cucumeris (Rhizoctonia solani) / liquid culture (foot rot, damping-off); assay type: cell-based; conditions: 3-4 days after application, read-out: disease control (inhibition of growth, photometrically)
Description: Fungicidal Activity Against Thanatephorus cucumeris (Rhizoctonia solani)/Liquid Culture (Foot Rot, Damping-Off) Mycelia fragments of a newly grown liquid culture of the fungus were directly mixed into nutrient broth (PDB potato dextrose broth). After placing a (DMSO) solution of the test compounds into a microtiter plate (96-well format), the nutrient broth containing the fungal material was added. The test plates were incubated at 24° C. and the inhibition of growth was determined photometrically 3-4 days after application.

[9] = system: Blumeria graminis f. Sp. tritici (Erysiphe graminis f. sp. tritici); test: Fungicidal activity against Blumeria graminis f. sp. tritici / wheat / leaf disc preventative (powdery mildew on wheat); assay type: in vivo; conditions: foliar, wheat leaf segments, inoculated 1 day after application, compared to untreated, read-out: disease control
Description: Fungicidal Activity Against Blumeria graminis f. Sp. tritici (Erysiphe graminis f. sp. tritici)/Wheat/Leaf Disc Preventative (Powdery Mildew on Wheat)
Wheat leaf segments cv. Kanzler were placed on agar in a multiwell plate (24-well format) and sprayed with the formulated test compound diluted in water. The leaf disks were inoculated by shaking powdery mildew infected plants above the test plates 1 day after application. The inoculated leaf disks were incubated at 20° C. and 60% rh under a light regime of 24 h darkness followed by 12 h light/12 h darkness in a climate chamber and the activity of a compound was assessed as percent disease control compared to untreated when an appropriate level of disease damage appears on untreated check leaf segments (6-8 days after application).

Pyrenophora teres = test: Fungicidal activity against Pyrenophora teres / barley / leaf disc preventative (net blotch); assay type: in vivo; conditions: foliar, barley leaf segments, inoculated 2 days after application, compared to untreated, read-out: disease control
Description: Fungicidal Activity Against Pyrenophora teres/Barley/Leaf Disc Preventative (Net Blotch) Barley leaf segments cv. Hasso were placed on agar in a multiwell plate (24-well format) and sprayed with the formulated test compound diluted in water. The leaf segments were inoculated with a spore suspension of the fungus 2 days after application. The inoculated leaf segments were incubated at 20° C. and 65% rh under a light regime of 12 h light/12 h darkness in a climate cabinet and the activity of a compound was assessed as disease control compared to untreated when an appropriate level of disease damage appears in untreated check leaf segments (5-7 days after application).

CO/N=C1\CC(C)(C)Cc2nc(-c3cccc(Cc4ccccc4)n3)ncc21 [Compound 23]
≥ 80%: inhibition at 200 ppm [1] | inhibition at 200 ppm (Gaeumannomyces graminis) | inhibition at 200 ppm [2] | inhibition at 200 ppm [3] | inhibition at 200 ppm [4] | inhibition at 200 ppm [5]

CO/N=C1\CCCc2nc(-c3cccc(Cc4ccccc4Cl)n3)ncc21 [Compound 24]
≥ 80%: inhibition at 200 ppm [1] | inhibition at 200 ppm (Gaeumannomyces graminis) | inhibition at 200 ppm [2] | inhibition at 200 ppm [3] | inhibition at 200 ppm [4] | inhibition at 200 ppm [5] | pest or weed control at 200 ppm [6] | pest or weed control at 200 ppm [7] | inhibition at 200 ppm [8]

c1ccc(Cc2cccc(-c3ncc4c(n3)C3CCC4C3)n2)cc1 (stereo not shown) [Compound 26]
≥ 80%: pest or weed control at 200 ppm [9] | inhibition at 200 ppm [1] | inhibition at 200 ppm (Gaeumannomyces graminis) | inhibition at 200 ppm [2] | inhibition at 200 ppm [3] | inhibition at 200 ppm [4] | inhibition at 200 ppm [5] | pest or weed control at 200 ppm [6] | pest or weed control at 200 ppm [7] | pest or weed control at 200 ppm (Pyrenophora teres) | inhibition at 200 ppm [8]

CO/N=C1\CCCc2nc(-c3cccc(Cc4ccccc4OC)n3)ncc21 [Compound 27]
≥ 80%: pest or weed control at 200 ppm [9] | inhibition at 200 ppm [1] | inhibition at 200 ppm (Gaeumannomyces graminis) | inhibition at 200 ppm [2] | inhibition at 200 ppm [3] | inhibition at 200 ppm [4] | inhibition at 200 ppm [5] | pest or weed control at 200 ppm [6] | pest or weed control at 200 ppm [7] | pest or weed control at 200 ppm (Pyrenophora teres)

Clc1ccccc1Cc1cccc(-c2ncc3c(n2)OCCO3)n1 [Compound 28]
≥ 80%: pest or weed control at 200 ppm [9] | inhibition at 200 ppm [1] | inhibition at 200 ppm (Gaeumannomyces graminis) | inhibition at 200 ppm [2] | inhibition at 200 ppm [3] | inhibition at 200 ppm [4] | inhibition at 200 ppm [5] | pest or weed control at 200 ppm [6] | pest or weed control at 200 ppm [7] | pest or weed control at 200 ppm (Pyrenophora teres) | inhibition at 200 ppm [8]

c1ccc(Cc2cccc(-c3ncc4c(n3)CCCCC4)n2)cc1 [Compound 29, 2-(6-Benzyl-pyridin-2-yl)-6,7,8,9-tetrahydro-5H-cycloheptapyrimidine]
≥ 80%: pest or weed control at 200 ppm [9] | inhibition at 200 ppm [1] | inhibition at 200 ppm (Gaeumannomyces graminis) | inhibition at 200 ppm [2] | inhibition at 200 ppm [3] | inhibition at 200 ppm [4] | inhibition at 200 ppm [5] | pest or weed control at 200 ppm [6] | pest or weed control at 200 ppm [7] | pest or weed control at 200 ppm (Pyrenophora teres) | inhibition at 200 ppm [8]

Cc1ccc(Cc2cccc(-c3ncc4c(n3)CCCCC4)n2)cc1 [Compound 30]
≥ 80%: pest or weed control at 200 ppm [9] | inhibition at 200 ppm [1] | inhibition at 200 ppm (Gaeumannomyces graminis) | inhibition at 200 ppm [2] | inhibition at 200 ppm [3] | inhibition at 200 ppm [4] | inhibition at 200 ppm [5] | pest or weed control at 200 ppm [6] | pest or weed control at 200 ppm [7] | pest or weed control at 200 ppm (Pyrenophora teres) | inhibition at 200 ppm [8]

Cc1cccc(Cc2cccc(-c3ncc4c(n3)CCCCC4)n2)c1 [Compound 31]
≥ 80%: pest or weed control at 200 ppm [9] | inhibition at 200 ppm (Gaeumannomyces graminis) | inhibition at 200 ppm [2] | inhibition at 200 ppm [4] | inhibition at 200 ppm [5] | pest or weed control at 200 ppm [6] | pest or weed control at 200 ppm [7] | pest or weed control at 200 ppm (Pyrenophora teres) | inhibition at 200 ppm [8]

Cc1ccccc1Cc1cccc(-c2ncc3c(n2)CCCCC3)n1 [Compound 32]
≥ 80%: pest or weed control at 200 ppm [9] | inhibition at 200 ppm [1] | inhibition at 200 ppm (Gaeumannomyces graminis) | inhibition at 200 ppm [2] | inhibition at 200 ppm [3] | inhibition at 200 ppm [4] | inhibition at 200 ppm [5] | pest or weed control at 200 ppm [6] | pest or weed control at 200 ppm [7] | pest or weed control at 200 ppm (Pyrenophora teres) | inhibition at 200 ppm [8]

COc1ccccc1Cc1cccc(-c2ncc3c(n2)CCCCC3)n1 [Compound 34]
≥ 80%: pest or weed control at 200 ppm [9] | inhibition at 200 ppm [1] | inhibition at 200 ppm (Gaeumannomyces graminis) | inhibition at 200 ppm [2] | inhibition at 200 ppm [3] | inhibition at 200 ppm [4] | inhibition at 200 ppm [5] | pest or weed control at 200 ppm [6] | pest or weed control at 200 ppm [7] | pest or weed control at 200 ppm (Pyrenophora teres) | inhibition at 200 ppm [8]

Cc1ccc(Cc2cccc(-c3ncc4c(n3)CC(C)(C)CC4)n2)cc1 [Compound 36]
≥ 80%: pest or weed control at 200 ppm [9] | inhibition at 200 ppm [1] | inhibition at 200 ppm (Gaeumannomyces graminis) | inhibition at 200 ppm [2] | inhibition at 200 ppm [3] | inhibition at 200 ppm [4] | inhibition at 200 ppm [5] | pest or weed control at 200 ppm [6] | pest or weed control at 200 ppm (Pyrenophora teres) | inhibition at 200 ppm [8]

COc1ccc(Cc2cccc(-c3ncc4c(n3)CCCCC4)n2)cn1 [Compound 39, 2-[6-(6-Methoxy-pyridin-3-ylmethyl)-pyridin-2-yl]-6,7,8,9-tetrahydro-5H-cycloheptapyrimidine]
≥ 80%: pest or weed control at 200 ppm [9] | inhibition at 200 ppm (Gaeumannomyces graminis) | inhibition at 200 ppm [2] | inhibition at 200 ppm [4] | inhibition at 200 ppm [5] | pest or weed control at 200 ppm [6] | pest or weed control at 200 ppm [7] | pest or weed control at 200 ppm (Pyrenophora teres)

COc1ccc(C(C)c2cccc(-c3ncc4c(n3)CC(C)(C)CC4)n2)cn1 (stereo not shown) [Compound 43]
≥ 80%: pest or weed control at 200 ppm [9] | inhibition at 200 ppm [1] | inhibition at 200 ppm (Gaeumannomyces graminis) | inhibition at 200 ppm [2] | inhibition at 200 ppm [3] | inhibition at 200 ppm [4] | inhibition at 200 ppm [5] | pest or weed control at 200 ppm [6] | pest or weed control at 200 ppm (Pyrenophora teres)
